Reference: patent US9247759B2, “Identification of human T2R receptors that respond to bitter compounds that elicit the bitter taste in compositions, and the use thereof in assays to identify compounds that inhibit (block) bitter taste in compositions and use thereof” (SENOMYX, INC., priority 2007, dated 2016)

Columns and labels:
[1] = target: T1, hT2R14 (Homo sapiens (Human), UniProt Q9NYV8); test: hT2R panel inhibition, transient HEK293 G16g44, agonist Aristolochic Acid 2 μM; type: cell-based; conditions: HEK293, compound at 25 μM; receptor activated to EC80 with the corresponding agonist; read-out: screening result against bitter receptor 14
Method in brief: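 Each hT2R was transiently transfected into HEK293 cells stably expressing G16g44 and assayed functionally for inhibition of agonist response. Agonists were applied at EC80: andrographolide at 0.5 mM for hT2R8 and aristolochic acid at 2 μM for hT2R14.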

[2] = target: T1, hT2R14; test: hT2R14 antagonist high-throughput FLIPR assay, stable cell line with G16g44, agonist aristolochic acid; type: cell-based; conditions: read-out: IC50 on hT2R14 bitter receptor
Method in brief: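 HEK293 cells stably expressing hT2R14 with chimeric G16g44 were stimulated with aristolochic acid (3 μM), giving 70-80% of maximal receptor activity. Test compounds were added together with the agonist, and antagonism was read as fluorescent calcium signal on FLIPR.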

[3] = target: hT2R4 (Homo sapiens (Human), UniProt Q9NYW5); test: hT2R panel inhibition, transient HEK293 G16g44, agonist Chloroquine pH6.5 5 mM; type: cell-based; conditions: HEK293, compound at 25 μM; receptor activated to EC80 with the corresponding agonist; class symbols; read-out: screening result against bitter receptor 4
Experimental: (§1) Specifically, in order to evaluate the inhibitory selectivity of the Compound C compound, this compound was tested against 22 human T2Rs which were deorphaned by Senomyx. These receptors and the bitter ligands that activate these human T2Rs are reported in earlier patent applications which are incorporated by reference herein. These 22 human T2Rs are hT2R1, 3, 4, 5, 7, 8, 9, 10, 13, 14, 16, 44, 51, 54, 55, 61, 63, 64, 65, 67, 71 and 75. The amino acid and nucleic acid sequences of all of these T2Rs may be found in these earlier patent applications. These human T2Rs were each individually transiently transfected into HEK293 cells that stably express the promiscuous G protein G16g44 and functional assays were effected using these receptors as disclosed in these same patent applications. […] The ligands were used at EC80 concentration levels. The list of bitter ligands utilized and the tested ligand concentrations are contained in Table 5 of this example.
(§2) Relating to the foregoing, FIG. 5 contains experimental results wherein Compound C was tested with different agonist compounds. The inhibition activity is represented by the reduction of receptor activity in the presence of Compound C. […] These 13 hT2Rs are hT2R3, 7, 10, 14, 16, 44, 51, 55, 61, 63, 64, 65, and 71.

[4] = test system: hT2R63; test: hT2R panel inhibition, transient HEK293 G16g44, agonist Caffeine 1 mM or Andrographolide 100 μM; type: cell-based, human; conditions: compound at 25 μM; receptor activated to EC80 with the corresponding agonist
Method in brief: (§3)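 Transfect one hT2R per well set; stimulate with agonist at EC80; add test compound; record reduction of functional response as inhibition.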

[5] = target: hT2R61 (Homo sapiens (Human), UniProt P59537); test: hT2R panel inhibition, transient HEK293 G16g44, agonist Aristolochic Acid 25 nM; type: cell-based; conditions: HEK293, compound at 25 μM; receptor activated to EC80 with the corresponding agonist; read-out: screening result against bitter receptor 61
Method in brief: as §3

[6] = test system: hT2R55; test: hT2R panel inhibition, transient HEK293 G16g44, agonist Cinchonine 150 μM; type: cell-based, human; conditions: compound at 25 μM; receptor activated to EC80 with the corresponding agonist
Method in brief: as §3

[7] = test system: hT2R44; test: hT2R panel inhibition, transient HEK293 G16g44, agonist Denatonium 0.5 μM; type: cell-based, human; conditions: compound at 25 μM; receptor activated to EC80 with the corresponding agonist
Method in brief: as §3

[8] = target: hT2R71 (Homo sapiens (Human), UniProt P59536); test: hT2R panel inhibition, transient HEK293 G16g44, agonist Picric Acid 10 μM; type: cell-based; conditions: HEK293, compound at 25 μM; receptor activated to EC80 with the corresponding agonist; read-out: screening result against bitter receptor 71
Method in brief: as §3

[9] = target: hT2R64 (Homo sapiens (Human), UniProt P59538); test: hT2R panel inhibition, transient HEK293 G16g44, agonist Aristolochic Acid 1 μM; type: cell-based; conditions: HEK293, compound at 25 μM; receptor activated to EC80 with the corresponding agonist; read-out: screening result against bitter receptor 64
Method in brief: as §3

[10] = target: hT2R3 (Homo sapiens (Human), UniProt Q9NYW6); test: hT2R panel inhibition, transient HEK293 G16g44, agonist Chloroquine pH6.5 50 μM; type: cell-based; conditions: HEK293, compound at 25 μM; receptor activated to EC80 with the corresponding agonist; read-out: screening result against bitter receptor 3
Method in brief: as §3

[11] = target: hT2R16 (Homo sapiens (Human), UniProt Q9NYV7); test: hT2R panel inhibition, transient HEK293 G16g44, agonist Salicin 1 mM; type: cell-based; conditions: HEK293, compound at 25 μM; receptor activated to EC80 with the corresponding agonist; read-out: screening result against bitter receptor 16
Method in brief: as §3

[12] = target: hT2R7 (Homo sapiens (Human), UniProt Q9NYW3); test: hT2R panel inhibition, transient HEK293 G16g44, agonist Chloroquine pH6.5 10 mM; type: cell-based; conditions: HEK293, compound at 25 μM; receptor activated to EC80 with the corresponding agonist; read-out: screening result against bitter receptor 7
Method in brief: as §3

[13] = target: hT2R75 (Homo sapiens (Human), UniProt P59540); test: hT2R panel inhibition, transient HEK293 G16g44, agonist Strychnine 1 μM; type: cell-based; conditions: HEK293, read-out: screening result against bitter receptor 75, compound at 25 μM; receptor activated to EC80 with the corresponding agonist
Experimental: as §1, §2

[14] = target: hT2R51 (Homo sapiens (Human), UniProt P59533); test: hT2R panel inhibition, transient HEK293 G16g44, agonist Prop 2.5 μM; type: cell-based; conditions: HEK293, compound at 25 μM; receptor activated to EC80 with the corresponding agonist; read-out: screening result against bitter receptor 51
Experimental: as §1, §2

[15] = test system: hT2R67; test: hT2R panel inhibition, transient HEK293 G16g44, agonist Andrographolide 5 μM; type: cell-based, human; conditions: compound at 25 μM; receptor activated to EC80 with the corresponding agonist
Method in brief: as §3

[16] = target: hT2R5 (Homo sapiens (Human), UniProt Q9NYW4); test: hT2R panel inhibition, transient HEK293 G16g44, agonist Picoline 10 mM; type: cell-based; conditions: HEK293, compound at 25 μM; receptor activated to EC80 with the corresponding agonist; read-out: screening result against bitter receptor 5
Method in brief: as §3

[17] = test system: hT2R54; test: hT2R panel inhibition, transient HEK293 G16g44, agonist Ranitidine 5 mM; type: cell-based, human; conditions: compound at 25 μM; receptor activated to EC80 with the corresponding agonist
Method in brief: as §3

[18] = test system: hT2R65; test: hT2R panel inhibition, transient HEK293 G16g44, agonist Oleuropein 1 mM; type: cell-based, human; conditions: compound at 25 μM; receptor activated to EC80 with the corresponding agonist
Method in brief: as §3

[19] = target: hT2R10 (Homo sapiens (Human), UniProt Q9NYW0); test: hT2R panel inhibition, transient HEK293 G16g44, agonist Strychnine 50 μM; type: cell-based; conditions: HEK293, read-out: screening result against bitter receptor 10, compound at 25 μM; receptor activated to EC80 with the corresponding agonist
Sequence of hT2R10 (Q9NYW0 whole entry): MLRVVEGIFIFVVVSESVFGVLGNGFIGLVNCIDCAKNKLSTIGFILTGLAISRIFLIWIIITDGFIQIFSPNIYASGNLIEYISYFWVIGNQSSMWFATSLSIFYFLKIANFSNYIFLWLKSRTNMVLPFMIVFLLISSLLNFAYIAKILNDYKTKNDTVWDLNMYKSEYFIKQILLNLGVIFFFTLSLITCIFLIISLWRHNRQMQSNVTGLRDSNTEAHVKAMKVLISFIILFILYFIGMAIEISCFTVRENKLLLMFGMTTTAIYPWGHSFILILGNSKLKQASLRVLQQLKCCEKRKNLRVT

Sequence of hT2R61 (P59537 whole entry): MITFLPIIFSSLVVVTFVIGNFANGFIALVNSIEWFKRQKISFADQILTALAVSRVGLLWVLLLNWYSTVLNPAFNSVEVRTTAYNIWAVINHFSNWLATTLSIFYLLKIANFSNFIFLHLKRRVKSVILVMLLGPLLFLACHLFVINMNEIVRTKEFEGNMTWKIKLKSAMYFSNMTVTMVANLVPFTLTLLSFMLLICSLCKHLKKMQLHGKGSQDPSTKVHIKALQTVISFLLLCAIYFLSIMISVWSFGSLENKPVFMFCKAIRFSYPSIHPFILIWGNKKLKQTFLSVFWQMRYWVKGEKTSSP
Sequence of hT2R5 (Q9NYW4 whole entry): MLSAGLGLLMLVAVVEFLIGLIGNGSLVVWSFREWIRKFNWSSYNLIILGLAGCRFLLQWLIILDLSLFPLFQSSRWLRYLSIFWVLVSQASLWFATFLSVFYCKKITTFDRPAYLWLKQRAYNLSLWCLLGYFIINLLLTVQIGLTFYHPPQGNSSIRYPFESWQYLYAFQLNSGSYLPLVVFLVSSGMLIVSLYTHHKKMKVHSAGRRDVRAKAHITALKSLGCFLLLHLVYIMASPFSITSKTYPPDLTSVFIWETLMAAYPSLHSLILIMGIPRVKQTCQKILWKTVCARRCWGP
T1 sequence (Q9NYV8 whole entry): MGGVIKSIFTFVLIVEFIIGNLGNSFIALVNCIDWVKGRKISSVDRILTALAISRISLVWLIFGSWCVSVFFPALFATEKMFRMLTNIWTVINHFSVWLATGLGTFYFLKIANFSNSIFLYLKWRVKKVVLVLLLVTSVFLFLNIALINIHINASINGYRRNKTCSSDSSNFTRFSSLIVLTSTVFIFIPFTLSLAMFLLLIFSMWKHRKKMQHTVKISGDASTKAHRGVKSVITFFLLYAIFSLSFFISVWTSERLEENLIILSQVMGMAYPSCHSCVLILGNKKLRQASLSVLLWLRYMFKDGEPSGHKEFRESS
Sequence of hT2R3 (Q9NYW6 whole entry): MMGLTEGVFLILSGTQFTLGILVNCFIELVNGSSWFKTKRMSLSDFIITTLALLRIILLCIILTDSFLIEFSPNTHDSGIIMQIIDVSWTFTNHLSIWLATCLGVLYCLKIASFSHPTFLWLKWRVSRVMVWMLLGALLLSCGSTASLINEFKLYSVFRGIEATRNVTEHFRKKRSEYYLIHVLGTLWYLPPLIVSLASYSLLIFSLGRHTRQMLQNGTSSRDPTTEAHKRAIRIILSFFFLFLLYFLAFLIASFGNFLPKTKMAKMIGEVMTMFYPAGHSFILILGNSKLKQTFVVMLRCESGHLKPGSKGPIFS
Sequence of hT2R16 (Q9NYV7 whole entry): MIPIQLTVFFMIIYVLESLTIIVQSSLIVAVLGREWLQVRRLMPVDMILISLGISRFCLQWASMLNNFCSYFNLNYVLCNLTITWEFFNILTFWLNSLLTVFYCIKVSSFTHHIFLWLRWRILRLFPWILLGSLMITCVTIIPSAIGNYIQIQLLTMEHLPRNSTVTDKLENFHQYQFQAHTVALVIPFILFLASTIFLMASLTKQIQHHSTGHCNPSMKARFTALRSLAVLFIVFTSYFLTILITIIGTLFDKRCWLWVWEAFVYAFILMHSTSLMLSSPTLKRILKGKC
Sequence of hT2R51 (P59533 whole entry): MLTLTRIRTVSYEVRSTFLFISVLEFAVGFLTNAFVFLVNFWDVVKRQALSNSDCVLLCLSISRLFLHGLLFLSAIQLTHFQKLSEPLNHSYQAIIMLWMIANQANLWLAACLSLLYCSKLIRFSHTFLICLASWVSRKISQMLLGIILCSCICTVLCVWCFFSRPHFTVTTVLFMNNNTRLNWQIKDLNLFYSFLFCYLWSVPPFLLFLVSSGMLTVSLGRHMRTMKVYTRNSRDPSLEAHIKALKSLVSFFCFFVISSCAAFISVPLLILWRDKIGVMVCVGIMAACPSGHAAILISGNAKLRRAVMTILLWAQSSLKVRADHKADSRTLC
Sequence of hT2R71 (P59536 whole entry): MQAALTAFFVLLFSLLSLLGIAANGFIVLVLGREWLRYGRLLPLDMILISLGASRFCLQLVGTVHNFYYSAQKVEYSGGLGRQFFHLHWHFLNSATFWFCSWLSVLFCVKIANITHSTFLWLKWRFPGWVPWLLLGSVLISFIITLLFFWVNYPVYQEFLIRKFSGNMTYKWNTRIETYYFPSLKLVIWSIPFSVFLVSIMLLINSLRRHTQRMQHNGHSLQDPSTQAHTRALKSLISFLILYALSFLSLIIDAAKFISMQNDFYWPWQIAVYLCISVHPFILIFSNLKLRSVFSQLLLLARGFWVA
Sequence of hT2R4 (Q9NYW5 whole entry): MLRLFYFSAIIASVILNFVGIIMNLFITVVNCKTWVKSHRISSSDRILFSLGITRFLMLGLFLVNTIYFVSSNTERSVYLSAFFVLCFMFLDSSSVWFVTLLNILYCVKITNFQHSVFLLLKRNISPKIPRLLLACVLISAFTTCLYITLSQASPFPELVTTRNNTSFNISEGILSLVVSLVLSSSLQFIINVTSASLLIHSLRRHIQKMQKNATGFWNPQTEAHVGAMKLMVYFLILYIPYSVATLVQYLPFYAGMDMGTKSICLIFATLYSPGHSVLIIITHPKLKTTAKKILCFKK
Sequence of hT2R64 (P59538 whole entry): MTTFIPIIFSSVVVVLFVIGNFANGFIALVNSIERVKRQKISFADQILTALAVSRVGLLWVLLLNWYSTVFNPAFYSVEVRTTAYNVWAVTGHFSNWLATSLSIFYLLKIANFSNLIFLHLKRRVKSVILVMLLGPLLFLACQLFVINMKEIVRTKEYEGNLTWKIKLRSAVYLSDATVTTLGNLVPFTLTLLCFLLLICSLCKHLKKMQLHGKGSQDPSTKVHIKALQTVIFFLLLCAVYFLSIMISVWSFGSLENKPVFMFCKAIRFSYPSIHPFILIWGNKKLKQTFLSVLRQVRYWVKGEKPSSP
Sequence of hT2R75 (P59540 whole entry): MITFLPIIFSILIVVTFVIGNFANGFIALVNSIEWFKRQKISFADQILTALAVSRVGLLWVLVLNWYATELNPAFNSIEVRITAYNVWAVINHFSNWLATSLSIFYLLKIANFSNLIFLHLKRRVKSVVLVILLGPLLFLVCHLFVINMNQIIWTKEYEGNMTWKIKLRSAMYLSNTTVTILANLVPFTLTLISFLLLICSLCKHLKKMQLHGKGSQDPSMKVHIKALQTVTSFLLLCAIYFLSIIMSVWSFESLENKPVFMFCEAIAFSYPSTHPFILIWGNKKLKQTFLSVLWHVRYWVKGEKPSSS
Sequence of hT2R7 (Q9NYW3 whole entry): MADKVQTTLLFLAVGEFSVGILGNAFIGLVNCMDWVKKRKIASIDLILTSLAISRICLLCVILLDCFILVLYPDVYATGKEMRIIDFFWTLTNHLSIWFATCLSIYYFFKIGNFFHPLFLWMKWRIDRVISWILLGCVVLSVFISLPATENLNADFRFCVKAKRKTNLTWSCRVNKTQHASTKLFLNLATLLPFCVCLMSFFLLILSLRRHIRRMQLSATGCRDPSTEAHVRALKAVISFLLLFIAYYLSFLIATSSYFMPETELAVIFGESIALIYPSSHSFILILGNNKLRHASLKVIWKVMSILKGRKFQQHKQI

Row | Structure (SMILES) | inhibition at 25 µM [1] [%] | IC50 [2] [nM] | inhibition at 25 µM [3] [%] | screening result against bitter receptor 63 [4] | inhibition at 25 µM [5] [%] | screening result against bitter receptor 55 [6] | screening result against bitter receptor 44 [7] | inhibition at 25 µM [8] [%] | inhibition at 25 µM [9] [%] | inhibition at 25 µM [10] [%] | inhibition at 25 µM [11] [%] | inhibition at 25 µM [12] [%] | inhibition at 25 µM [13] [%] | inhibition at 25 µM [14] [%] | screening result against bitter receptor 67 [15] | inhibition at 25 µM [16] [%] | screening result against bitter receptor 54 [17] | screening result against bitter receptor 65 [18] | inhibition at 25 µM [19] [%]
1 | CC(=O)Nc1ccc(S(=O)(=O)N(Cc2ccccc2)CC2CCC(C(=O)O)CC2)cc1 (centres unmarked) [Example 5-21, 4-((4-acetamido-N-benzylphenylsulfonamido)methyl)-cyclohexanecarboxylic acid] | > 80 | 1620 | 20 to 40 | +++ (60% to 80% inhibition = +++) | 60 to 80 | + (20% to 40% inhibition = +) | ++ (40% to 60% inhibition = ++) | 20 to 40 | 20 to 40 | 20 to 40 | 20 to 40 |  |  |  |  |  |  |  | 
2 | COc1cccc(CN(Cc2ccc(C(=O)O)cc2)S(=O)(=O)c2ccc(O)cc2)c1 [Example 5-43, 4-((4-hydroxy-N-(3-methoxybenzyl)phenylsulfonamido)methyl)-benzoic acid] | > 80 | 188 | 20 to 40 | ++++ (80% or greater inhibition = ++++) | > 80 | + (20% to 40% inhibition = +) | + (20% to 40% inhibition = +) | 40 to 60 | 60 to 80 | 20 to 40 | 20 to 40 |  |  |  |  |  |  |  | 
3 | O=C(O)C1CCC(CN(Cc2ccc(F)cc2)S(=O)(=O)c2ccccn2)CC1 (centres unmarked) [Example 5-53, 4-((N-(4-fluorobenzyl)pyridine-2-sulfonamido)methyl)cyclohexanecarboxylic acid] | 40 to 60 |  | 20 to 40 | ++ (40% to 60% inhibition = ++) |  |  |  | 20 to 40 | 40 to 60 |  |  | 20 to 40 |  |  |  |  |  |  | 
4 | COc1ccc(CN(Cc2ccccc2OC)S(=O)(=O)c2ccc(C(=O)O)cc2)cc1 [Example 5-58, 4-(N-(2-methoxybenzyl)-N-(4-methoxybenzyl)sulfamoyl)benzoic acid] | > 80 |  |  | ++++ (80% or greater inhibition = ++++) | > 80 | +++ (60% to 80% inhibition = +++) | +++ (60% to 80% inhibition = +++) | > 80 | 60 to 80 | 60 to 80 | 20 to 40 | 60 to 80 | 20 to 40 | 20 to 40 | + (20% to 40% inhibition = +) | 20 to 40 | +++ (60% to 80% inhibition = +++) | ++++ (80% or greater inhibition = ++++) | 60 to 80
5 | COc1ccc(CN(Cc2ccccc2Cl)S(=O)(=O)c2ccc(C(=O)O)cc2)cc1 [Example 5-68, 4-(N-(2-chlorobenzyl)-N-(4-methoxybenzyl)sulfamoyl)benzoic acid] | > 80 |  |  | ++++ (80% or greater inhibition = ++++) | 60 to 80 | ++++ (80% or greater inhibition = ++++) | ++ (40% to 60% inhibition = ++) | 60 to 80 | 60 to 80 | 20 to 40 | 20 to 40 | 20 to 40 | 20 to 40 | 20 to 40 | + (20% to 40% inhibition = +) | 40 to 60 | + (20% to 40% inhibition = +) | + (20% to 40% inhibition = +) | 20 to 40
6 | Cc1cccc(CN(Cc2ccccc2)S(=O)(=O)c2ccc(C(=O)O)cc2)c1 [Example 5-73, 4-(N-benzyl-N-(3-methylbenzyl)sulfamoyl)benzoic acid] | > 80 |  |  | ++++ (80% or greater inhibition = ++++) | 60 to 80 | ++ (40% to 60% inhibition = ++) |  | 40 to 60 | 20 to 40 | 40 to 60 | 20 to 40 | 20 to 40 | 20 to 40 | > 80 | + (20% to 40% inhibition = +) | 20 to 40 | +++ (60% to 80% inhibition = +++) | ++ (40% to 60% inhibition = ++) | 40 to 60
7 | O=C(O)c1ccc(S(=O)(=O)N(Cc2ccccc2)Cc2ccccc2Cl)cc1 [Example 5-83, 4-(N-benzyl-N-(2-chlorobenzyl)sulfamoyl)benzoic acid] | > 80 |  |  | +++ (60% to 80% inhibition = +++) | > 80 | +++ (60% to 80% inhibition = +++) | + (20% to 40% inhibition = +) | 20 to 40 | 20 to 40 | 40 to 60 | 40 to 60 | 20 to 40 | 40 to 60 | 20 to 40 | ++ (40% to 60% inhibition = ++) | 20 to 40 | ++ (40% to 60% inhibition = ++) | +++ (60% to 80% inhibition = +++) | 40 to 60
8 | COc1ccc(CN2C(=O)N(c3ccc(C(=O)O)cc3)C(=O)C2Cc2ccccc2)cc1 (centres unmarked) [Example 5-98, 4-(4-benzyl-3-(4-methoxybenzyl)-2,5-dioxoimidazolidin-1-yl)benzoic acid] |  |  | 40 to 60 |  | > 80 | ++++ (80% or greater inhibition = ++++) | +++ (60% to 80% inhibition = +++) |  | 60 to 80 | 20 to 40 |  |  |  |  |  |  |  |  | 
